We go through ten molecules from PMC7071015, “Structure-Based Design, Synthesis and Bioactivity of a New Anti-TNFα Cyclopeptide” (Molecules, 2020).

In one data set the test system is TNFα production. As to conditions: stimulated monocytes; by promoting TNFα mRNA degradation; cited from earlier work. From the text: (§1) A range of biologics targeting TNFα have been licensed for the treatment of various inflammatory diseases, such as rheumatoid arthritis and Crohn’s disease. Although these agents have high potency and specificity, they are limited by their high production costs and potential immunogenicity. […] Also, their large molecular weight and low oral stability means their administration is only feasible through injection [[12 ...

Data set [1] relates to menin-MLL protein–protein interaction. Conditions: cited from earlier work. From the text:
(§2) This was achieved by producing a cyclic peptide with higher target specificity compared to small molecules and low potential of immunogenicity when compared with biologics. Protein loops are often involved in the biomolecular recognition of proteins. Loop peptidomimetics have previously been introduced as a new class of bioactive agents. The ...

Data set [2] concerns TNFα. Also noted: method as in PMID 7756262. Conditions: K562 cells, 125I-labelled TNFα; cited from earlier work.
The subject of data set [3] is protein kinase 2 regulatory subunit (CK2β) / catalytic subunit interaction. As to conditions: cited from earlier work.
Text: as §2

For another data set, the target named is T1, recombinant human TNFα (Homo sapiens, UniProt P01375).
T1 construct: purchased InvivoGen
T1 sequence (P01375 77-233 limits assumed): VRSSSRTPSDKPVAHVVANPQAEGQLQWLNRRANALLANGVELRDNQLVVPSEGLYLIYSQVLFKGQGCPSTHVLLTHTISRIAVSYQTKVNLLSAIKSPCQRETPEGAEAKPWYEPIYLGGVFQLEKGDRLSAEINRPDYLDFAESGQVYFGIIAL
In words: HEK-Blue TNFα sensor cell assay (NF-ĸB-induced SEAP reporter). The format is cell-based.

Another data set relates to HEK-Blue TNFα cells. Conditions: 24 h, OD 540 nm, at the concentration used to test anti-TNFα activity, one duplicate. The method, then: Therefore, this can be used as preliminary data for further biological evaluations.
This assay was performed with one duplicate, and the error bars show standard error.
The Vybrant®® MTT assay (Thermo Fisher Scientific) was performed following the manufacturer protocol. In this assay, cell permeable tetrazolium dye (yellow) was […] in viable cells to yield the water-insoluble formazan (purple) after incubation with HEK-TNFα cells. Formazan was then solubilised and quantified by measuring the UV absorbance at 540 nm.

For data set [4] the following is noted: qualitative; reason for NMR in methanol-d3.
The conditions of data set [5]: cited from earlier work.
Text: as §1

Data set [6] deals with TNFα. As to conditions: cited from earlier work. The method, then:
Small molecule with anti-TNFα activity with compact 3D conformations containing trifluoromethylphenyl indole and chromone moieties have previously been designed. These compounds bind with high affinity (IC50 = 13 μM) to a hydrophobic binding pocket formed by six tyrosine residues (Y59, Y119 and Y151 from chain A and B) at the interface of TNFα dimer. Alternative binding pockets that bind small molecules have also been identified from the predicted TNFα-TNFR1 complex and these involve the residues H66, L67 and L71 of TNFR1 and residues R82, F90 and F127 in TNFα [18]. Recently, a small ...

For data set [7], the target named is recombinant human tumour necrosis factor alpha (TNFα) (human) (UniProt P01375).
Chain of recombinant human tumour necrosis factor alpha (TNFα) (human) (P01375 77-233): as the sequence (P01375 77-233 limits assumed) above

Where a SMILES comes first, the peptide text is derived from it. Bridges are numbered along the chain shown (N, C = ends). Where no end group is shown, it is not given here.

Method for recombinant human TNFα: In the assay, the cells are transfected with a secretory alkaline phosphatase reporter gene which is downstream of the NF-ĸB promoter and expressed in response to TNFα receptor activation. The alkaline phosphatase activity was then quantified by measuring the absorbance (λ = 620 nm) of coloured substrate. […] Activation of HEK-Blue TNFα cells by 1 ng/mL of human TNFα (InvivoGen) in the presence and absence of anti-hTNFα antibody (InvivoGen) were used as positive and negative controls in the anti-TNFα assay (Figure 3).
Peptides were dissolved in DMSO and solutions were diluted with the cell culture media so the final concentration of DMSO is 1%. Blank experiments with 1% DMSO were carried out.
TNFα sensor cells (HEK-Blue) were grown in Dulbecco’s Modified Eagle’s medium (DMEM) containing 4.5 g/L glucose and supplemented with 10% [v/v] heat-inactivated foetal bovine serum, 2 mM L-glutamine, 100 μg/mL normocin, 50 U/mL penicillin and 50 μg/mL streptomycin. Selective antibiotics added to the culture medium include 100 μg/mL zeocin and 1 μg/mL puromycin and avoided in initial cultures (first 2 passages). Maintenance cultures were kept in T-75 cell culture flasks and incubated in humidified incubator with 5% [v/v] […]
can then be quantified in cells supernatant (20 μL) by the reaction with 180 µL of QUANTI‐
Blue™, a reagent that turns from purple to blue in the presence of SEAP. Quantification of […]

Consider `O=C1CCC(N2C(=O)c3ccccc3C2=O)C(=O)N1` (stereo not shown) [Thalidomide], for which the “effect on TNFα production” value with TNFα production is listed as “inhibits TNFα production”.
On to MCP-1, for which, in data set [1], the “inhibition of menin-MLL interaction” value was “inhibitor of the menin-MLL protein–protein interaction”.
On to `Cc1ccc(C(=O)Nc2ccc(S(=O)(=O)O)c3cc(S(=O)(=O)O)cc(S(=O)(=O)O)c23)cc1NC(=O)c1cccc(NC(=O)Nc2cccc(C(=O)Nc3cc(C(=O)Nc4ccc(S(=O)(=O)O)c5cc(S(=O)(=O)O)cc(S(=O)(=O)O)c45)ccc3C)c2)c1` [suramin], for which, in the data set with TNFα [2], the “effect on TNFα oligomer” value is given as “Deoligomerisation of TNFα”.
As for “cyclo-GCRLYGFKIHGCG [cyclic peptide derived from the regulatory subunit (CK2β) of protein kinase 2]”, in data set [3], the “inhibition of CK2β interaction with catalytic subunit” value was “inhibits the interaction with the associated catalytic subunit”.
The IC50 is the concentration needed to halve the response being measured. On to `CC(C)C[C@@H]1NC(=O)[C@H](Cc2ccc(O)cc2)NC(=O)[C@H](CCC(N)=O)NC(=O)[C@H](CO)NC(=O)[C@H](Cc2c[nH]c3ccccc23)NC(=O)[C@@H](NC(=O)[C@@H](N)Cc2ccc(O)cc2)CSSC[C@@H](C(=O)N[C@@H](Cc2ccc(O)cc2)C(=O)O)NC1=O` [WP9QY], for which the concentration for half-maximal inhibition (IC50) at recombinant human TNFα is 122 µM. For the same molecule, the “cytotoxicity (MTT)” value in the data set on HEK-Blue TNFα cells is “no significant cytotoxicity”.
For `CC(C)C[C@@H]1NC(=O)[C@H](CC(N)=O)NC(=O)[C@H](CCC(=O)O)NC(=O)[C@H](CO)NC(=O)[C@H](Cc2c[nH]c3ccccc23)NC(=O)[C@H](Cc2ccc(O)cc2)NC(=O)[C@H](Cc2c[nH]cn2)NC(=O)CNC(=O)[C@@H]2CCCN2C(=O)[C@H](CCC(N)=O)NC(=O)[C@H](Cc2ccccc2)NC1=O` [compound 1] (cyclo(HYWSENLFQPG)), the “concentration achieving inhibition of TNFα activity by 35%” value at recombinant human TNFα (35% inhibition, 1 ng/mL recombinant human TNFα, 24 h, 1% DMSO, absorbance 620 nm, duplicates) is on record as 117.4 µM. The solubility in water result in data set [4] is listed as “low solubility”. In the data set with HEK-Blue TNFα cells, the “cytotoxicity (MTT)” value is “no significant cytotoxicity”.
Take “infliximab: large molecule biologic targeting TNFα”: in [5], the adverse reaction entry is on record as “associated with development of infusion reaction”.
Regarding `Cc1ccc(C)c(Cn2c(CO)nc3ccccc32)c1` [UCB-6876], in the data set with TNFα [6], the “effect on TNFα trimer in co-crystal structure” value is “change in the spatial arrangement of the TNFα trimer and a loss of its 3-fold symmetry”.
For HYWSENLFQPG (cyclised head to tail (N- to C-) via a proline-glycine linker) [cyclic peptide 1 (WP9 loop peptidomimetic 1)], the concentration that inhibits TNFα activity by 35% in HEK-Blue TNFα sensor cells (NF-kB-driven secreted alkaline phosphatase), 1 ng/mL human TNFα, 24 h; the pair said to be blocked is TNFα with TNFR-1 in [7] was 117 µM.
Same read-out and setting: to YCWSQYLCY (disulfide 2-8 (inferred)) [WP9QY] belongs 97.2 µM.
